# The source made the active and inactive calls.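 Rule for the calls: active = EC50 at or below 10 µM; inactive = EC50 above 10 µM.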
# Target: Insulin-degrading enzyme (Homo sapiens) (UniProt P14735)
# Test: cellular IDE activation of Abeta substrate cleavage – fluorescence polarization, HEK cells, dose response (AID 588439)
# Conditions: endogenous IDE, FAbeta-B cleavage fluorescence polarization
# Sequence of Insulin-degrading enzyme (Homo sapiens) (P14735 whole entry, looked up): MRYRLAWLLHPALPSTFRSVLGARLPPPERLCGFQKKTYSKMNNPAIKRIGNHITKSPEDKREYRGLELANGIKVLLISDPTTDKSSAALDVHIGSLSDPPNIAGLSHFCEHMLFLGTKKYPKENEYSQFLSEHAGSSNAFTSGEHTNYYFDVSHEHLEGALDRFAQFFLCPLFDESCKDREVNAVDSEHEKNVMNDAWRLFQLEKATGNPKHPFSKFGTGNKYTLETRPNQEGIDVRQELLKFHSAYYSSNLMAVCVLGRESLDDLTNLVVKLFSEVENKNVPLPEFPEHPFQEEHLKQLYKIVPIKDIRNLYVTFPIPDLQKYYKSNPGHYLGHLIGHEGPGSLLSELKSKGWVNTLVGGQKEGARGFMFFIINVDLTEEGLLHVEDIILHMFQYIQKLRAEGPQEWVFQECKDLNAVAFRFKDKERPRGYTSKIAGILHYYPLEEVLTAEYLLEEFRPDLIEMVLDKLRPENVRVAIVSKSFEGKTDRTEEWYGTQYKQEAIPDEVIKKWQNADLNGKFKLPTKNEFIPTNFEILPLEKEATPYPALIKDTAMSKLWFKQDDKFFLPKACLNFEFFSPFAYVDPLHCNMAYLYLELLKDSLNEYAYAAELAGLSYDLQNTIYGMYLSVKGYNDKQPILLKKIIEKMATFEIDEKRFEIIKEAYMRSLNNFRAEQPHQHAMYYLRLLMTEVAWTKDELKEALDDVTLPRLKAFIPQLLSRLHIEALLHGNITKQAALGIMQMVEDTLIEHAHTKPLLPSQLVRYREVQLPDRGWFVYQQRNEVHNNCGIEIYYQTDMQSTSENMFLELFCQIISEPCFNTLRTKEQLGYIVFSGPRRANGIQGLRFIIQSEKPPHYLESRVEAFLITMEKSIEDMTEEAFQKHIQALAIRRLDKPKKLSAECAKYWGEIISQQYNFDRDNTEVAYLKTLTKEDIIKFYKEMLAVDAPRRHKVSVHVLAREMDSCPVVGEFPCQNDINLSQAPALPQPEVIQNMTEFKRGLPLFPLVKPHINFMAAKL
row,EC50,SMILES
1,> 54.7 µM (inactive),C#CCOCCOCCOCCNc1nc(N2CCN(C(=O)CCCCCCCCCCNC(=O)Cn3cc(C[C@@H](C)O)nn3)CC2)nc(N2CCN(C(=O)CCCCCCCCCCNC(=O)[C@H](CCCN=C(N)N)n3cc(C[C@@H](C)CC)nn3)CC2)n1
2,> 54.7 µM (inactive),C#CCOCCOCCOCCNc1nc(N2CCN(C(=O)CCCCCCCCCCNC(=O)Cn3cc(CCCCCN)nn3)CC2)nc(N2CCN(C(=O)CCCCCCCCCCNC(=O)Cn3cc(C[C@@H](C)O)nn3)CC2)n1
3,> 54.7 µM (inactive),C#CCOCCOCCOCCNc1nc(N2CCN(C(=O)CCCCCCCCCCNC(=O)[C@H](CO)n3cc(CCCSC)nn3)CC2)nc(N2CCN(C(=O)CCCCCCCCCCNC(=O)[C@H](CCCCN)n3cc(CCO)nn3)CC2)n1
4,> 54.7 µM (inactive),C#CCOCCOCCOCCNc1nc(N2CCN(C(=O)CCCCCCCCCCNC(=O)[C@H](CCCCN)n3cc(CCO)nn3)CC2)nc(N2CCN(C(=O)CCCCCCCCCCNC(=O)[C@H](CCCN=C(N)N)n3cc(C[C@@H](C)CC)nn3)CC2)n1
